Measured values: US4559338A, “Soluble quinazolino-1,4-benzodiazepin-5,13-dione derivatives” (Merck & Co., Inc., priority 1985, dated 1985)
≈ marks a conversion by molar mass, not a printed value. Structures can show the parent of a compound that is named as a salt. Where two headings read alike, the source gives them in different places. Where a SMILES comes first, the peptide text is derived from it. [ ]: non-standard residue; d: D form. The star is where a group is joined. sY = N[C@@H](Cc1ccc(OS(=O)(=O)O)cc1)C(=O)O; Cbz = O=C(OCc1ccccc1)*; Boc = CC(C)(C)OC(=O)*

Legend:
CCK receptor = details: cited from earlier work
CCK receptor (pancreas) = target: T1, CCK receptor (pancreas) (Rattus norvegicus, UniProt P30551); assay: CCK receptor binding (pancreas) method, 125I-CCK; design: species or system rat (male Sprague-Dawley); details: for IC50: I-CCK-8 Pancreas assay, read-out: Anti-CCK Activity IC50; for effect on the 125I-CCK receptor binding assay (in words): additional protease inhibitors in assay buffer
T1 construct: The whole pancreas of a male Sprague-Dawley rat (200-350 g); from tissue; host or cells: whole pancreas of male Sprague-Dawley rat, washed membrane homogenate
T1 sequence (P30551 1-444): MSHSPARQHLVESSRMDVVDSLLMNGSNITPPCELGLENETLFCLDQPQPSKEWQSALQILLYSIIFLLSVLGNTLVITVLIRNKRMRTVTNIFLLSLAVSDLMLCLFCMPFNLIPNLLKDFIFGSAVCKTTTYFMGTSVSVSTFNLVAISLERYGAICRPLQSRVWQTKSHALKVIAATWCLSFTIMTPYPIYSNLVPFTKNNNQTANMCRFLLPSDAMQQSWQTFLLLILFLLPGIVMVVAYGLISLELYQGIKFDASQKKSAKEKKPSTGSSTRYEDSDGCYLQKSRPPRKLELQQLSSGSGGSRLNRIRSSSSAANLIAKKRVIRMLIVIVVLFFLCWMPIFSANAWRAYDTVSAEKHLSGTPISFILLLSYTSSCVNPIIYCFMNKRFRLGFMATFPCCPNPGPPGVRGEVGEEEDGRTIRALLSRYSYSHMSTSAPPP
Description: Screening of the novel compounds according to the present invention to determine biological activity and obtain an IC50 value for them, in order to identify significant CCK-antagonism, may be accomplished using an ^125 I-CCK receptor binding assay and in vitro isolated tissue preparations. These tests involve the following:
CCK receptor binding (pancreas) method
[…] (J. Biol. Chem., 254, 9349-9351, 1979). Receptor binding is performed according to Innis and Snyder (Proc. Natl. Acad. Sci., 77, 6917-6921, 1980), with the minor modification of adding the additional protease inhibitors, phenyl-methane sulfonyl fluoride and o-phenanthroline, which have no effect on the ^125 I-CCK receptor binding assay.
The whole pancreas of a male Sprague-Dawley rat (200-350 g), which has been sacrificed by decapitation, is dissected free of fat tissue and homogenized in 20 volumes of ice-cold 50 mM Tris HCl (pH 7.7 at 25° C.) with a Brinkman Polytron PT-10. The homogenates are centrifuged at 48,000 g for 10 minutes, then the resulting pellets are resuspended in Tris Buffer, centrifuged as above, and resuspended in 200 volumes of binding assay buffer (50 mM Tris HCl, pH 7.7 at 25° C., 5 mM dithiothreitol, 0.1 mM bacitracin, 1.2 mM phenylmethane sulfonyl fluoride and 0.5 mM o-phenanthroline).
For the binding assay, 25 μl of buffer (for total binding), or unlabeled CCK-8 sulfate sufficient to give a final concentration of 1 μM of CCK-8 (for nonspecific binding), or the compounds of the formula of the compounds according to the instant invention ([…]), are added to 450 μl of the membrane suspensions in microfuge tubes. All assays are run in duplicate or triplicate, and the reaction mixtures are incubated at 37° C. for 30 minutes and centrifuged in a Beckman Microfuge (4 minutes) immediately after adding 1 ml of ice-cold incubation buffer. The supernatant is aspirated and discarded, and the pellets are counted with a Beckman Gamma 5000.
The compounds of Examples 1-9 were tested for solubility in deionized water and pH 7.4 phosphate buffer and as CCK-antagonists (pancreas assay) with the following results: […]

[1] = Solubility in deionized water and pH 7.4 phosphate buffer; format: physicochemical
[2] = Solubility / stability and absorption stated in the text (no method described); format: physicochemical; details: white powder
[3] = compound of the earlier filing U.S. Pat. No. 4,530,790; cited from earlier work
[4] = deionized water, water, H2O (deionized water), read-out: Solubility
[5] = phosphate buffer, pH 7.4, aqueous buffer, pH 7.4 Buffer, read-out: Solubility

Q: Which “CCK-antagonist activity (in words)” value (CCK receptor) does the source give for CSCC[C@H](NC(=O)OC(C)(C)C)C(=O)N[C@@H](CC(=O)O)C(=O)N[C@@H](Cc1ccccc1)C(N)=O [Boc-Met-Asp-Phe-NH2] (Boc-Met-Asp-Phe-NH2) here?
A: The value was “can function as CCK-antagonists”.

Q: Which “CCK-antagonist activity (in words)” value (CCK receptor) does the source give for CSCC[C@H](NC(=O)[C@H](Cc1ccc(OS(=O)(=O)O)cc1)NC(=O)OCc1ccccc1)C(=O)NCC(=O)N[C@@H](Cc1c[nH]c2ccccc12)C(=O)N[C@@H](CCSC)C(=O)N[C@@H](CC(=O)O)C(N)=O [Cbz-Tyr(SO3 H)-Met-Gly-Trp-Met-Asp-NH2] (Cbz-[sY]MGWMD-NH2) here?
A: The value was “can function as CCK-antagonists”.

Q: Which IC50 (CCK receptor (pancreas)) does the source give for CC(C)C[C@H]1C(=O)N2c3ccccc3[C@@](O)(C[C@@H]3NC(=O)c4ccccc4-n4c3nc3ccccc3c4=O)[C@H]2N1C(=O)CCC(=O)O [Example 1, 2,3,9,9Aα-tetrahydro-9α-hydroxy-2-(2-methylpropyl)-γ,3-dioxo-9-(5,6,7,13-tetrahydro-5,13-dioxoquinazolino(3,2-A)-1,4-benzodiazepin-7-yl)-1H-imidazo(1,2-A)indole-1-butanoic acid] here?
A: The IC50 was 230 µM.

Q: What about the Solubility [1, 4] of the same molecule?
A: Its Solubility is 280 µg/mL (≈ 0.44 mM).

Q: And the Solubility [1, 5]?
A: The Solubility was 9500 µg/mL (≈ 14.9 mM).

Q: Which IC50 (CCK receptor (pancreas)) does the source give for CC(C)CC1C(=O)N2c3ccccc3C(O)(C3NC(=O)c4ccccc4-n4c3nc3ccccc3c4=O)C2N1C(=O)CCC(=O)[O-].[Na+] (stereo not drawn) [Example 2, sodium 2,3,9,9Aα-tetrahydro-9α-hydroxy-2-(2-methylpropyl)-γ,3-dioxo-9-(5,6,7,13-tetrahydro-5,13-dioxoquinazolino(3,2-A)-1,4-benzodiazepin-7-yl)-1H-imidazo(1,2-A)indole-1-butanoate] here?
A: Its IC50 is 27 µM.

Q: What about the Solubility ([1]; H2O (deionized water)) of the same molecule?
A: Its Solubility is 72000 µg/mL.

Q: Which IC50 (CCK receptor (pancreas)) does the source give for CC(C)C[C@H]1C(=O)N2c3ccccc3[C@@](O)(C[C@@H]3NC(=O)c4ccccc4-n4c3nc3ccccc3c4=O)[C@H]2N1C(=O)[C@@H](N)CCCCN [Example 3, dihydrochloride] here?
A: Its IC50 is 3.8 µM.

Q: And the “water-soluble (in words)” value [2]?
A: The value was “water-soluble”.

Q: For CC(C)C[C@H]1C(=O)N2c3ccccc3[C@@](O)(C[C@@H]3NC(=O)c4ccccc4N4C(=O)c5ccccc5NC34)[C@H]2N1C(=O)CCC(=O)O (stereo partly drawn) [Example 4, 9-(5,6,7,7A,8,13-hexahydro-5,13-dioxoquinazolino(3,2-A)-1,4-benzodiazepin-7-yl)-2,3,9,9A-tetrahydro-9α-hydroxy-2-(2-methylpropyl)-γ,3-dioxo-1H-imidazo(1,2-A)indole-1-butanoic acid dihydrate], which IC50 (CCK receptor (pancreas)) is on record?
A: The IC50 was 6.1 µM.

Q: What about the Solubility ([1]; H2O (deionized water), dihydrate) of the same molecule?
A: The Solubility was 540 µg/mL.

Q: What about the Solubility [1, 5] of the same molecule?
A: The Solubility was 10800 µg/mL.

Q: For CC(C)C[C@H]1C(=O)N2c3ccccc3[C@@](O)(C[C@@H]3NC(=O)c4ccccc4N4C(=O)c5ccccc5NC34)[C@H]2N1C(=O)CCC(=O)O (stereo partly drawn) [Example 5, sodium 9-(5,6,7,7A,8,13-hexahydro-5,13-dioxoquinazolino(3,2-A)-1,4-benzodiazepin-7-yl)2,3,9,9A-tetrahydro-9α-hydroxy-2-(2-methylpropyl)-γ,3-dioxo-1H-imidazo(1,2-A)indole-1-butanoate trihydrate], which IC50 (CCK receptor (pancreas)) is on record?
A: Its IC50 is 1.7 µM.

Q: What about the Solubility ([1]; H2O (deionized water), trihydrate) of the same molecule?
A: The Solubility was > 8900 µg/mL.

Q: For CC(C)C[C@H]1C(=O)N2c3ccccc3[C@@](O)(C[C@@H]3NC(=O)c4ccccc4-n4c3nc3ccccc3c4=O)[C@H]2N1C(=O)[C@@H](N)CCCNC(=O)OCc1ccccc1 [Example 6, 1,2,9,9Aα-tetrahydro-9α-hydroxy-1-[2-amino-5-((phenylmethoxy)carbonyl)aminopentanoyl]-2-(2-methylpropyl)-9-[(5,6,7,13-tetrahydro-5,13-dioxoquinazolino(3,2-A)-1,4-benzodiazepin-7-yl)methyl]-3H-imidazo(1,2-A)indol-3-one hydrochloride], which IC50 (CCK receptor (pancreas)) is on record?
A: Its IC50 is 1.8 µM.

Q: What about the Solubility [1, 4] of the same molecule?
A: The Solubility was 240 µg/mL.

Q: What does the source list for CC(C)C[C@H]1C(=O)N2c3ccccc3[C@@](O)(C[C@@H]3NC(=O)c4ccccc4N4C(=O)c5ccccc5NC34)[C@H]2N1CC(=O)O (stereo partly drawn) [Example 7, 7β-[(1-carboxymethyl-2,3,9,9Aα-tetrahydro-9α-hydroxy-2-(2-methylpropyl)-3-oxo-1H-imidazo(1,2-A)indol-9-yl)methyl]-6,7,7A-8-tetrahydro-5H,13H-quinazolino(3,2-A)-1,4-benzodiazepin-5H,13-dione solvate]?
A: IC50 (CCK receptor (pancreas)): 1.4 µM; Solubility ([1]; H2O (deionized water)): 10500 µg/mL

Q: Which results are given for CC(C)C[C@H]1C(=O)N2c3ccccc3[C@@](O)(C[C@@H]3NC(=O)c4ccccc4N4C(=O)c5ccccc5NC34)[C@H]2N1CC(=O)O (stereo partly drawn) [Example 8, 7β-[(1-carboxymethyl-2,3,9,9Aα-tetrahydro-9α-hydroxy-2-(2-methylpropyl)-3-oxo-1H-imidazo(1,2-A)indol-9-yl)methyl]-6,7,7A-8-tetrahydro-5H,13H-quinazolino(3,2-A)-1,4-benzodiazepin-5H,13-dione sodium salt solvate]?
A: IC50 (CCK receptor (pancreas)): 0.8 µM; Solubility ([1]; H2O (deionized water)): > 5200 µg/mL

Q: With CC(C)C[C@@H]1N[C@H]2N(C1=O)c1ccccc1[C@]2(C[C@@H]1NC(=O)c2ccccc2-n2c1nc1ccccc1c2=O)OC(=O)CCC(=O)O [Example 9, 7β-[(2,3,9,9Aα-tetrahydro-9α-(3-carboxy-1-oxopropoxy)-2-(2-methylpropyl)-3-oxo-1H-imidazo(1,2-A)indol-9-yl)methyl]quinazolino(3,2-A)-1,4-benzodiazepin-5,13-(6H,7H)-dione monohydrate] as the molecule, how does the IC50 (CCK receptor (pancreas)) read?
A: Its IC50 is 85 µM.

Q: For CSCC[C@H](N)C(=O)N[C@@H](CC(=O)O)C(=O)N[C@@H](Cc1ccccc1)C(N)=O [Met-Asp-Phe-NH2] (H-Met-Asp-Phe-NH2), which “CCK-antagonist activity (in words)” value (CCK receptor) is on record?
A: The value was “can function as CCK-antagonists”.

Q: For CCCC(=O)Nc1nc2c(ncn2[C@@H]2O[C@@H]3COP(=O)(O)O[C@H]3[C@H]2OC(=O)CCC)c(=O)[nH]1 [dibutyryl cyclic GMP], which “relative CCK antagonist potency within cyclic nucleotide class (in words)” value (CCK receptor; derivatives of cyclic nucleotides, structure-function studies) is on record?
A: Its value is “the most potent”.

Q: What does the source list for CC(C)C[C@@H]1N[C@H]2N(C1=O)c1ccccc1[C@@]2(O)C[C@@H]1NC(=O)c2ccccc2-n2c1nc1ccccc1c2=O [formula (I), 7β-((2,3,9,9Aα-tetrahydro-9α-hydroxy-2-(2-methylpropyl)-3-oxo-1H-imidazo-(1,2-A)-indol-9-yl)-methyl)quinazolino(3,2-A)(1,4) benzodiazepin-5,13-(6H,7H)dione]?
A: CCK-antagonist activity (in words) (CCK receptor): has been shown to be a CCK-antagonist; solubility in water (in words) [3]: only slightly soluble in water

Q: Which “effect on the 125I-CCK receptor binding assay (in words)” value (CCK receptor (pancreas)) does the source give for c1cnc2c(c1)ccc1cccnc12 [o-phenanthroline, reference compound] here?
A: The value was “no effect”.

Q: Which “effect on the 125I-CCK receptor binding assay (in words)” value (CCK receptor (pancreas)) does the source give for O=S(=O)(F)Cc1ccccc1 [phenyl-methane sulfonyl fluoride, reference compound] here?
A: Its value is “no effect”.
